Assay [1] has as its system A2780 Human Carcinoma Cells. The assay can be described thus: Glucose displacement assay (ATP measurement, CellTiter-Glo). Particulars: ATP measurement in A2780 cells, 0.5 μM rotenone. The assay is classed as cell-based. As to the method: 2. Glucose Displacement Assay (ATP Measurement)
30,000 A2780 Human Carcinoma Cells are seeded per well in a Greiner 96-well plate. Cells are expanded and cultured in RPMI 1640 medium+GlutaMAX® with 10% FCS and 11 mM glucose, at 37° C. with 5% CO2. After 44 h, culture media is changed and washed once with PBS to starvation media consisting of RPMI 1640 medium with 1% FCS without glucose for 2 hours. Cells are then washed with KRB buffer, followed by incubation for 20 min at 37° C. of the treatment mix consisting of 60 μL KRB buffer/well and 10 μL of compound or DMSO 10×. 10 μl of rotenone is added to the mix to a final concentration of 0.5 μM. Cell plates are left for 2 min at room temperature. 20 μL of different glucose concentrations are added to the mix—typically 0.1 to 10 mM range—.
Cells are incubated for another 15 min at 37° C., before measuring ATP with the CellTiter-Glo® Assay, under manufacturer's guidance, but without the equilibration step at room temperature for 30 min. In brief, 100 μl of Cell-Titer-Glo® Reagent is added to the wells containing already 100 μl of the previous reaction mix. Plates are mixed for 2 min at 800 rpm, followed by incubation at room temperature for 10 min to stabilize the luminescent signal. Luminescence is then recorded with the Tekan Ultra Evolution reader.
(In general: Cellular ATP, detected with luciferase, serves as a proxy for viable cell number.)

The test system of the next assay is A2780 cells. Briefly: Deoxy-glucose uptake assay in A2780 cells (14C 2-deoxy-D-glucose transport). Particulars: Homo sapiens, 20 min; inhibition of 14C 2-deoxy-D-glucose transport into A2780 cells; 20 min compound incubation; read-out: IC50. The assay is classed as cell-based. The procedure, abridged:
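Radiolabelled 2-deoxy-D-glucose transport over 20 min was scintillation-counted in A2780 cells, grown 48 h, after 20 min compound exposure in KRB. Untreated cells gave the 100% reference, with Cytochalasin B defining background. IC50 values were regressed from triplicate means across 7 or 14 concentrations.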

Where [2] appears, read: 1 mM glucose, read-out: IC50 [μM] at 1 mM glucose.
Where [3] appears, read: 10 mM glucose, read-out: IC50 [μM] at 10 mM glucose.

pIC50: −log10 of the molar value. Where two headings read alike, the source gives them in different places. A value given as a limit tells only on which side of the number the result lay.

In general, IC50 refers to the concentration needed to halve the response being measured. Broadly, the pIC50 is −log10 of the IC50, conventionally taken in molar units.

For `CO[C@H]1O[C@H](CO)[C@@H](O)[C@H](O)[C@H]1OC(=O)c1cc(Cl)c(OCc2cccc(NC(=O)CCC(=O)OC(C)(C)C)c2)c(Cl)c1C` [Example 347], the IC50 in assay [1] (setting [2]) stood at 0.86 µM; in assay [1] (setting [3]), 5.28 µM. In the assay on A2780 cells, the pIC50 is 5.55.
Turning to `CO[C@H]1O[C@H](CO)[C@@H](O)[C@H](O)[C@H]1OC(=O)c1cc(Cl)c(OCc2cccc(CNC(=O)CCCC(=O)OC(C)(C)C)c2)c(Cl)c1C` [Example 349], the results for the IC50 in assay [1] (setting [2]) and in assay [1] (setting [3]) were 1.46 µM and 7.76 µM, respectively. The pIC50 in the assay with A2780 cells is 5.60.
Taken in the same sequence, the figures for `CO[C@H]1O[C@H](CO)[C@@H](O)[C@H](O)[C@H]1OC(=O)c1cc(Cl)c(OCc2cccc(NC(=O)CCCC(=O)OC(C)(C)C)c2)c(Cl)c1C` [Example 351] were 0.55 µM, 1.97 µM and 6.10.
Taken in the same sequence, the figures for `COC(=O)/C=C/c1ccc(COc2cc(OC)c(C(=O)O[C@H]3[C@@H](OC)O[C@H](CO)[C@@H](O)[C@@H]3O)cc2Cl)cc1` [Example 352] were 0.26 µM, 1.05 µM and 7.40.
Consider `COc1cc(OCc2cn3c(C)cccc3n2)c(Cl)cc1C(=O)O[C@H]1[C@@H](OC)O[C@H](CO)[C@@H](O)[C@@H]1O` [Example 353], for which the values for the IC50 in assay [1] (setting [2]) and in assay [1] (setting [3]) were 1.5 µM and 6.07 µM, respectively. For the same compound, the pIC50 in the assay on A2780 cells is 7.00.
Regarding `COC(=O)CCc1ccc(COc2cc(OC)c(C(=O)N[C@H]3[C@@H](OC)O[C@H](CO)[C@@H](O)[C@@H]3O)cc2Cl)cc1` [Example 356], the IC50 in assay [1] (setting [2]) was 3.68 µM; in assay [1] (setting [3]), 12.1 µM. In addition, the pIC50 with A2780 cells is 5.57.
Taken in the same sequence, the figures for `COc1cc(OCc2cccc(CNC(=O)OC(C)(C)C)c2)c(Cl)cc1C(=O)O[C@H]1[C@@H](OC)O[C@H](CO)[C@@H](O)[C@@H]1O` [Example 361] were 1.93 µM, 8.11 µM and 6.10.
Taken in the same sequence, the figures for `COc1cc(OCc2cccc(NC(=O)CCCC(=O)OC(C)(C)C)c2)c(Cl)cc1C(=O)O[C@@H]1[C@@H](O)[C@@H](OC)O[C@H](CO)[C@H]1O` [Example 364] were 3.88 µM, 12.3 µM and 5.36.
As to `C#CCCCCCCCn1c(COc2c(Cl)cc(C(=O)O[C@H]3[C@@H](OC)O[C@H](CO)[C@@H](O)[C@@H]3O)c(C)c2Cl)nc2ccccc21` [Example 371], the figures for the IC50 in assay [1] (setting [2]) and in assay [1] (setting [3]) were 0.86 µM and 1.44 µM, respectively. Besides, the pIC50 in the assay with A2780 cells is 6.40.
With `COc1cc(OCc2cccc(CNC(=O)CCC(=O)OC(C)(C)C)c2)c(Cl)cc1C(=O)O[C@H]1[C@@H](OC)O[C@H](CO)[C@@H](O)[C@@H]1O` [Example 372], the IC50 in assay [1] (setting [2]) was found to be 2.89 µM; in assay [1] (setting [3]), 15 µM. In addition, the pIC50 in the assay on A2780 cells was 5.62.
As to `COc1cc(OCc2cccc(CNC(=O)CCCC(=O)OC(C)(C)C)c2)c(Cl)cc1C(=O)O[C@H]1[C@@H](OC)O[C@H](CO)[C@@H](O)[C@@H]1O` [Example 373], the IC50 turned out to be 6.44 µM in assay [1] (setting [2]) and 26.7 µM in assay [1] (setting [3]). In addition, in the assay on A2780 cells, the pIC50 is 5.39.
As for `COc1cc(OCc2cccc(NC(=O)CCC(=O)OC(C)(C)C)c2)c(Cl)cc1C(=O)O[C@H]1[C@@H](OC)O[C@H](CO)[C@@H](O)[C@@H]1O` [Example 375], the IC50 was determined as 1.41 µM in assay [1] (setting [2]) and 7.19 µM in assay [1] (setting [3]). Further, the pIC50 in the assay on A2780 cells was 5.80.
On to `COc1cc(OCc2cccc(NC(=O)CCCC(=O)OC(C)(C)C)c2)c(Cl)cc1C(=O)O[C@H]1[C@@H](OC)O[C@H](CO)[C@@H](O)[C@@H]1O` [Example 376], for which the IC50 in assay [1] (setting [2]) came out at 1.02 µM; in assay [1] (setting [3]), 3.73 µM. Moreover, the pIC50 in the assay on A2780 cells was 6.10.
For the compound `COC(=O)[C@H](CCC(=O)Nc1cccc(COc2cc(OC)c(C(=O)O[C@H]3[C@@H](OC)O[C@H](CO)[C@@H](O)[C@@H]3O)cc2Cl)c1)NC(=O)OC(C)(C)C` [Example 377], the IC50 amounted to 1.34 µM in assay [1] (setting [2]) and 7.83 µM in assay [1] (setting [3]). For the same compound, in the assay on A2780 cells, the pIC50 is 5.62.
The matching figures for `COc1cc(OCc2cccc(OCCCCCC(=O)O)c2)c(Cl)cc1C(=O)O[C@H]1[C@@H](OC)O[C@H](CO)[C@@H](O)[C@@H]1O` [Example 379]: 5.39 µM, 24.1 µM and 5.08.
Take `COc1cc(OCc2cccc(CNC(=O)CCCCCCC(=O)OC(C)(C)C)c2)c(Cl)cc1C(=O)O[C@H]1[C@@H](OC)O[C@H](CO)[C@@H](O)[C@@H]1O` [Example 401]: the results for the IC50 in assay [1] (setting [2]) and in assay [1] (setting [3]) were 2.95 µM and 7.81 µM, respectively. In addition, the pIC50 with A2780 cells is 6.22.
Take `COc1cc(OCc2cccc(NC(=O)CCCCCCC(=O)OC(C)(C)C)c2)c(Cl)cc1C(=O)O[C@H]1[C@@H](OC)O[C@H](CO)[C@@H](O)[C@@H]1O` [Example 402]: the IC50 in assay [1] (setting [2]) worked out at 3.24 µM; in assay [1] (setting [3]), 7.35 µM. Also, the pIC50 in the assay with A2780 cells is 6.52.
In the case of `COc1cc(OCc2cccc(NC(=O)CCCC(=O)O)c2)c(Cl)cc1C(=O)O[C@H]1[C@@H](OC)O[C@H](CO)[C@@H](O)[C@@H]1O` [Example 407], the IC50 is 16.3 µM in assay [1] (setting [2]) and greater than 33 µM in assay [1] (setting [3]). For the same compound, the pIC50 in the assay on A2780 cells was 5.07.
The matching figures for `COc1cc(OCc2cccc(NC(=O)CCCCCCC(=O)O)c2)c(Cl)cc1C(=O)O[C@H]1[C@@H](OC)O[C@H](CO)[C@@H](O)[C@@H]1O` [Example 409]: 7.63 µM, 14.5 µM and 5.39.
The matching figures for `COC(=O)[C@H](CCCCNC(=O)CCCC(=O)Nc1cccc(COc2cc(OC)c(C(=O)O[C@H]3[C@@H](OC)O[C@H](CO)[C@@H](O)[C@@H]3O)cc2Cl)c1)NC(=O)OC(C)(C)C` [Example 412]: 6.02 µM, 13.9 µM and 5.64.
The matching figures for `COC(=O)[C@H](CCCCNC(=O)CCCCCCC(=O)NCc1cccc(COc2cc(OC)c(C(=O)O[C@H]3[C@@H](OC)O[C@H](CO)[C@@H](O)[C@@H]3O)cc2Cl)c1)NC(=O)OC(C)(C)C` [Example 413]: 10.3 µM, 30.9 µM and 5.29.
Take `COc1cc(OCc2cccc(CNC(=O)OC(C)(C)C)c2)c(Cl)cc1C(=O)N[C@H]1[C@H](OC)O[C@H](CO)[C@@H](O)[C@@H]1O` [Example 419]: the figures for the IC50 in assay [1] (setting [2]) and in assay [1] (setting [3]) were 4.39 µM and 11.6 µM, respectively. Besides, in the assay on A2780 cells, the pIC50 was 5.96.
Taken in the same sequence, the figures for `COc1cc(OCc2cccc(CNC(=O)CCC(=O)OC(C)(C)C)c2)c(Cl)cc1C(=O)N[C@H]1[C@@H](OC)O[C@H](CO)[C@@H](O)[C@@H]1O` [Example 424] were 9.79 µM, 25.4 µM and 5.48.
As to `COc1cc(OCc2cccc(CNC(=O)CCCC(=O)OC(C)(C)C)c2)c(Cl)cc1C(=O)N[C@H]1[C@@H](OC)O[C@H](CO)[C@@H](O)[C@@H]1O` [Example 425], the figures for the IC50 in assay [1] (setting [2]) and in assay [1] (setting [3]) were 7.97 µM and 14.5 µM, respectively. Also, the pIC50 in the assay with A2780 cells is 5.60.
The matching figures for `COc1cc(OCc2cccc(CNC(=O)CCCCCCC(=O)OC(C)(C)C)c2)c(Cl)cc1C(=O)N[C@H]1[C@@H](OC)O[C@H](CO)[C@@H](O)[C@@H]1O` [Example 426]: 5.56 µM, 19.5 µM and 5.55.
The matching figures for `COc1cc(OCc2cccc(NC(=O)CCCCCCC(=O)OC(C)(C)C)c2)c(Cl)cc1C(=O)N[C@H]1[C@@H](OC)O[C@H](CO)[C@@H](O)[C@@H]1O` [Example 430]: 3.9 µM, 7.8 µM and 5.77.

The values above are taken from patent publication US20210170033A1, “NOVEL CONJUGATES OF A PHARMACEUTICAL AGENT AND A MOIETY CAPABLE OF BINDING TO A GLUCOSE SENSING PROTEIN” (SANOFI, priority 2017, published 2021).
